In patent US7090834B1, “Vascular endothelial cell growth factor variants and uses thereof” (Genentech, Inc., priority 1999, dated 2006):

Experiments:
[1] = tested on: ERK1 and ERK2 in HUVEC cells; assay: Activation of MAP kinases, ERK1/ERK2 phosphorylation Western blot; format: cell-based, human; conditions: 50 ng/ml or 10 ng/ml, 5 minutes, FIG. 12A
Experimental: (§1) Passage 4–7 HUVEC cells (Cell Systems, Kirkland, Wash.) were grown in Cell System's complete medium (AZ0-500) with 10% fetal calf serum and growth factors on gelatin-coated dishes and made quiescent by 14 hour starvation in 0.2% serum. […] The HUVEC cells were then lysed in 0.5–1 ml RIPA buffer containing 0.1 mM sodium orthovanadate, 5 mM para-nitrophenylphosphate, 10 mM sodium fluoride, 0.5 micromolar okadaic acid and a protease inhibitor cocktail (Roche MB 1836145). Western blot analysis was then conducted, probing for phosphorylated ERK1 or ERK2 using anti-phospho ERK antiserum (Promega).

[2] = tested on: p38 stress-activated MAP kinase in HUVEC cells; assay: p38 MAP kinase phosphorylation Western blot; format: cell-based, human; conditions: 50 ng/ml or 10 ng/ml, 5 minutes, FIG. 12B
Experimental: VEGF has previously been reported to stimulate the stress-activated, p38 MAP kinase [Rousseau et al., Oncogene, 15:2169–2177 (1997); Yu et al., J. Cell. Phys., 178:235–246 (1999)].
as §1, with “The” for “The HUVEC”, “The phosphorylation state of p38 stress-activated MAP kinase” for “Western blot analysis”, “assessed with an” for “then conducted, probing for phosphorylated ERK1 or ERK2 using”, “p38 specific” for “ERK”, “(NEB).” for “(Promega).”

PLC-gamma in HUVEC cells = assay: PLC-gamma tyrosine phosphorylation after immunoprecipitation; format: cell-based, human; conditions: 20 ng/ml, 5 minutes, FIG. 13A
Experimental: In order to determine which VEGF receptor(s) are involved in PLC-gamma activation in primary endothelial cells, HUVEC cells were treated with native VEGF or VEGF receptor-selective variants and PLC-gamma phosphorylation was assessed after immunoprecipitation.
Passage 4–7 HUVEC cells (Cell Systems, Kirkland, Wash.) were grown in Cell System's complete medium (AZ0-500) with 10% fetal calf serum and growth factors on gelatin-coated dishes and made quiescent by 14 hour starvation in 0.2% serum. […] The cells were then lysed in 0.5–1 ml RIPA buffer containing 0.1 mM sodium orthovanadate, 5 mM para-nitrophenylphosphate, 10 mM sodium fluoride, 0.5 micromolar okadaic acid and a protease inhibitor cocktail (Roche MB 1836145). PLC-gamma was then immunoprecipitated from whole cell lysates using monoclonal antibodies (Upstate Biotechnology) and analyzed for tyrosine phosphorylation (FIG. 13A) or lysates were immunoprecipitated with monoclonal antibodies against p85 PI 3′-kinase (purchased from Transduction Labs (P13020) and Neomarkers (MS424-P)) and tested for phosphotyrosine using phosphotyrosine antibodies PY20 or E120H (Transduction Labs) (FIG. 13B). Immunoprecipitation was conducted as follows. Protein A/G beads (Pierce) were blocked for nonspecific protein binding in 50 mM HEPES pH 7.2, 0.1% TX-100, 150 mM NaCl and 1 mg/ml ovalbumin for 30 minutes. Antibodies were precoupled in the same buffer for 1 hour at 4° C. with head over end rotation and beads were washed 3 times in lysis buffer. Beads were added to the lysates and rotated overnight. Beads were washed sequentially in 50 mM Tris pH 7.6, 150 mM NaCl, 1% TX-100, 1 mM CaCl2; 50 mM Tris pH 7.6, 500 mM NaCl, 0.1% TX-100, 1 mM CaCl2 and 50 mM Tris pH 7.6, 150 mM NaCl, 0.05% TX-100, 1 mM CaCl2. Beads were then resuspended in 2× sample buffer and boiled. Supernatants were applied directly to 4–12% Tris-Glycine gradient gels (Novex).

HUVEC cells = assay: HUVEC migration, modified Boyden chamber assay; format: cell-based, human; conditions: 18 hour assay, FIG. 14A
Experimental: One of the central aspects of VEGF action on endothelial cells is its ability to act as a chemoattractant and stimulate the migration of endothelial cells. HUVEC cell migration was analyzed in a modified Boyden chamber assay as follows.
Falcon 8.0 micron filter inserts (Falcon 3097) were coated with type 1 collagen (VITROGEN, COHESION). HUVEC (obtained from Cell Systems, <passage 8) were grown in Cell Systems complete media (4ZO-500) with 10% FCS. Cells were trypsinized and transferred to EBM (Endothelial basal media, Clonetics) with 0.1% BSA for the assay. Cells were plated at 5×10^4 per upper chamber. […] The assay was routinely an 18 hour assay at 37° C. For the LY294002 inhibitor experiments, cells were allowed to adhere for 30 minutes prior to addition of the inhibitor. 20 minutes after inhibitor addition, VEGF was added to the bottom well and the assay was allowed to proceed for only 4 hours to avoid the occurrence of apoptosis associated with the treatment of these primary cells with LY294002 (purchased from Biomol).
Cells were removed from the upper side of the membrane by scraping with a polyurethane swab and then the remaining cells on the bottom side of the membrane were fixed with methanol. Cells were stained with Yo-Pro Iodide nuclear stain (Molecular Probes) and counted under low power fluorescence using an Image-Pro cell recognition program.

corneal angiogenesis = assay: Corneal pocket angiogenesis assay; format: in vivo, Sprague-Dawley rats; conditions: rat, pellet with 200 ng growth factor, day 6, FIGS. 15A and 15B
Experimental: Assays were performed as described by Polyerini et al., Methods Enzymol., 198:440–450 (1991) with the following modifications. Sprague-Dawley rats were anesthetized using a gas (isoflurane)/injectable ketamine (80 mg/kg)/xylazine (15 mg/kg) combination. The eyes were gently proptosed and secured in place using nontraumatic forceps. With a #15 blade, a 1.5 mm incision was made slightly below the center of the cornea. Using a micro spatula (ST80017, ASSI), the incision was carefully blunt-dissected through the stroma toward the outer canthus of the eye. […] After surgery, the eyes were coated with gentamicin ointment. At day 6, the animals were injected with high molecular weight FITC-dextran and euthanized to allow for visualization of the vasculature. Corneal whole mounts were made of the enucleated eyes and measurements of the neovascular area completed using computer-assisted image analysis (Image-Pro Plus).

KDR receptor = assay: RIA assay, binding to KDR receptor; conditions: compared to native VEGF, FIG. 8A
Sequence of KDR receptor (P35968 20-327 limits assumed): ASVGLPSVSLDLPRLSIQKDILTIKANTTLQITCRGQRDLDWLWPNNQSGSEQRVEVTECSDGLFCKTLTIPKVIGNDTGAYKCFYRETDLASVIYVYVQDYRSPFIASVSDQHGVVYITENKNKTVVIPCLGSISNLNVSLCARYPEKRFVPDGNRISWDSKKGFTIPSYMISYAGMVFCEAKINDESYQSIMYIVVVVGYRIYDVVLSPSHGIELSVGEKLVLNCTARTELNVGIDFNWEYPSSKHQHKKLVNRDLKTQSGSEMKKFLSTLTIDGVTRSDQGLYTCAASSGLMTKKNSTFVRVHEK
Experimental: (§2) Various assays were conducted to examine the properties and biological activities of the I43A/I46A/Q79A/I83A Flt-sel variant. For example, quantitative binding measurements were carried out using a soluble radio-immuno receptor-binding assay (RIA), as described in Example 6 above.

Flt-1 receptor = assay: RIA assay, binding to FLT-1 receptor; conditions: FIG. 8B
Sequence of Flt-1 receptor (P17948 27-331 limits assumed): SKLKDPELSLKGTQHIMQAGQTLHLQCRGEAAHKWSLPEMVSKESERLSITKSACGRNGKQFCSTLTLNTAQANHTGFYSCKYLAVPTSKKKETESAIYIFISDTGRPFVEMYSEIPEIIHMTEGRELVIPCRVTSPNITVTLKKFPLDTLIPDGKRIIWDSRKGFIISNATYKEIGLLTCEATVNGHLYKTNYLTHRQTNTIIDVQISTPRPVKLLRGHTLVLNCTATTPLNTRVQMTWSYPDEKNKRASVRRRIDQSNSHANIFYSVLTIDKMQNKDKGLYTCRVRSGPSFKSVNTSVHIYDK
Experimental: as §2

[3] = target: T1, KDR transfected NIH3T3 cells (Homo sapiens, UniProt P35968); assay: Receptor-transfected cell binding assay, KDR; conditions: displacement of 125I-VEGF, 4° C., three hours, FIG. 5
T1 construct: expressed in transfected cells; host or cells: NIH3T3 cells
T1 sequence (P35968 20-1356): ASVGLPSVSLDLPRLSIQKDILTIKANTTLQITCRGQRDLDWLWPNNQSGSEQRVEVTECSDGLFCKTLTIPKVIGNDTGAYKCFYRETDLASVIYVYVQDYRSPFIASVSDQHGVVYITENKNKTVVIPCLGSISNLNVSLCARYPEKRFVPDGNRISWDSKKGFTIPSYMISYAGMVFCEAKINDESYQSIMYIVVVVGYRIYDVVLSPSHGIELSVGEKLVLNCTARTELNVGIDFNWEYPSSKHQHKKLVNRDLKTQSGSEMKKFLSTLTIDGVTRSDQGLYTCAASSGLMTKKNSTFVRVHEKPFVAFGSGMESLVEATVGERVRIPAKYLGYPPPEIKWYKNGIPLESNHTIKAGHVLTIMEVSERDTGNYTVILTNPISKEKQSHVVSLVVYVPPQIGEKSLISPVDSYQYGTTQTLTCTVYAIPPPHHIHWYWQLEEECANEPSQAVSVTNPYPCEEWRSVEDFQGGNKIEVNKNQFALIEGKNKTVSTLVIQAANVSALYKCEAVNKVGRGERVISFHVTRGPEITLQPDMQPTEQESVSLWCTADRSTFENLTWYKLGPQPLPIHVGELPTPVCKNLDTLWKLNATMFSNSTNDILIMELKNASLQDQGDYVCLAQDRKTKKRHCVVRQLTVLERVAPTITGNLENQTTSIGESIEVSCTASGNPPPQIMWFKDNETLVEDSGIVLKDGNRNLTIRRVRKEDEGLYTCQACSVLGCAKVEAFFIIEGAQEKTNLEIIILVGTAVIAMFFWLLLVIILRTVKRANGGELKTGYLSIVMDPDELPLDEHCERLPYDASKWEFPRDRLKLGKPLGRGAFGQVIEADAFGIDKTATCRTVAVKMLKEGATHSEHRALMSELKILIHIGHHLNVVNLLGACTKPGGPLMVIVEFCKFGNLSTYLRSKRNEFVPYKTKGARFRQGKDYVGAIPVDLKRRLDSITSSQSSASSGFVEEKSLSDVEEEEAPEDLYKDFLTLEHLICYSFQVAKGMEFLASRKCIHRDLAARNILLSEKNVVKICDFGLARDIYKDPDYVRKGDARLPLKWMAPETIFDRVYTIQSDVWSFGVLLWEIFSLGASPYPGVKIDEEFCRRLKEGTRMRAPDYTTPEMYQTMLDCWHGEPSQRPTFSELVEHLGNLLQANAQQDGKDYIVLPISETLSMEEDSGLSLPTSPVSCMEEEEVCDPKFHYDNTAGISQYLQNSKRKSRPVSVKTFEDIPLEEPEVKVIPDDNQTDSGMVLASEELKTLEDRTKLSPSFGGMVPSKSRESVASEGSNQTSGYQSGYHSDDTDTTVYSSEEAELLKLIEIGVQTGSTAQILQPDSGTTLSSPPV
Experimental: (§3) The assay is described in detail in Example 7. Each point represents the average of duplicate determinations, and errors are estimated to be less than 15% of the values.
(§4) KDR or Flt-1 transfected NIH3T3 cells were prepared as described by Fuh et al., J. Biol. Chem., 273:11187–11204 (1998). The transfected cells were maintained in F12 media supplemented with 10% FBS and 400 ug/ml G418 (GibcoBRL). For the binding assays, the cells were plated in 12-wells plates at 1×10^6/well to reach confluency next day. The cells were then washed and blocked in Hank's buffered saline (HBS) with 1% BSA for one hour before adding ^125I-VEGF (1–109) (prepared by standard chloramine-T methods) and increasing concentrations of unlabeled VEGF variants. 50 pM and 10 pM of labeled VEGF (1–109) was used for KDR and Flt-1 cell binding, respectively. The plates were incubated at 4° C. for three hours and then washed two times with HBS with 0.5% BSA. The bound, labeled VEGF was collected by solubilizing the washed cells with 1N NaOH, and then counted in a gamma-counter (Isodata, ICN).

[4] = target: T2, Flt-1 transfected NIH3T3 cells (Homo sapiens, UniProt P17948); assay: Receptor-transfected cell binding assay, Flt-1; conditions: FIG. 6
T2 construct: expressed in transfected cells; host or cells: NIH3T3 cells
T2 sequence (P17948 27-1338): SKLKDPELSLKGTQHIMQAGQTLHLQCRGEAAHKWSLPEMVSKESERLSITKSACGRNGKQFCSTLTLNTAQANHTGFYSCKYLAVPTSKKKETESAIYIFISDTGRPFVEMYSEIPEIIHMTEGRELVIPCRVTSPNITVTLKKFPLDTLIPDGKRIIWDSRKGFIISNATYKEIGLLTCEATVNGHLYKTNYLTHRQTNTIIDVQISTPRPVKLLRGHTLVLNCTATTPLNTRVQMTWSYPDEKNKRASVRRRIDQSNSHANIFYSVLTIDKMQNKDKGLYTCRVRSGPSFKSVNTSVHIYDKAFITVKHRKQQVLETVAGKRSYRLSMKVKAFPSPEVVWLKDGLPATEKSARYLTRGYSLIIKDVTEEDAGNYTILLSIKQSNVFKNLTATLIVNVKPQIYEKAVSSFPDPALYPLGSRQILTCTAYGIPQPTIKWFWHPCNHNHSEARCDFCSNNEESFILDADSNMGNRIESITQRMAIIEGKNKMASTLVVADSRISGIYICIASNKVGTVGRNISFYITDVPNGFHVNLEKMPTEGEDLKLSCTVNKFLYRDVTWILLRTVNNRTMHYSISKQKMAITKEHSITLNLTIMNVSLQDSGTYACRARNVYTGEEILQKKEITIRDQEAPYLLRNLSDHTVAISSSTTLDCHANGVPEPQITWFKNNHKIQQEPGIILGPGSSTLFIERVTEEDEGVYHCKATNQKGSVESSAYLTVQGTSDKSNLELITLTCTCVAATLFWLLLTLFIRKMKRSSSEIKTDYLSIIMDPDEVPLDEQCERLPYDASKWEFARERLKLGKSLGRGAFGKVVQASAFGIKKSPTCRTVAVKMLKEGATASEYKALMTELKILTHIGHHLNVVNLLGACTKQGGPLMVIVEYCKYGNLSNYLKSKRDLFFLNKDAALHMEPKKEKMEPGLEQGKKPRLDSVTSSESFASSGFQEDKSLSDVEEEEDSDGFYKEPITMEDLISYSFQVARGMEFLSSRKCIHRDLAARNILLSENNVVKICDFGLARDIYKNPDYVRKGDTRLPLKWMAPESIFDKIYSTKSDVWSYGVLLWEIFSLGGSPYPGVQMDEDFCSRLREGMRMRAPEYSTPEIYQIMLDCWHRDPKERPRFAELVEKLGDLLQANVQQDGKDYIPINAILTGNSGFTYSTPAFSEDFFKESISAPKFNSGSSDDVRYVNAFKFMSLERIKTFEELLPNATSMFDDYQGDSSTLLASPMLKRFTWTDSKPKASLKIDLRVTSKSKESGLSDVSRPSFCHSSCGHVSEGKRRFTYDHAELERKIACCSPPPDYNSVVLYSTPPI
Experimental: as §3, §4

[5] = tested on: MMP-9 secretion by human aorta smooth muscle cells (ASMC); assay: Matrix metalloprotease 9 assay (gelatin zymography); format: cell-based; conditions: 40 ng/ml, 24 hours, compared to native VEGF(1–109) or PlGF, FIG. 11
Experimental: An assay that measures the secretion of matrix metalloprotease 9 following activation of Flt-1 expressed on human smooth aorta muscle cells was conducted (Wang and Keiser, Circ. Res., 83:832–840 (1998)). Human aorta smooth muscle cells (ASMC) (Clonetics) were maintained in SM2 media (Clonetics) at 37° C. in 5% CO2 and 95% ambient air in the presence of 10% fetal bovine serum in 6-well polystyrene plates (Becton-Dickinson). When, cells attained 90% confluence, they were growth-arrested for 24 hours in serum-free medium containing 0.2% bovine serum albumin (BSA). […] After electrophoresis, proteins were renatured by incubation of the gels for 30 minutes at room temperature in Renaturing Buffer and in Developing Buffer (Novex) for overnight at 37° C. The gels were stained with 0.25% Coomassie Brilliant Blue (Sigma). Gelatinase activity was identified as lightly stained or clear bands following destaining.
Shown is a representative zymogram of one of two independent experiments. Fold change represents the relative band density of the VEGF(1–109)-, VEGF(1–109) variants- or PlGF-treated groups versus the vehicle-treated (PBS) control.

Row | fold reduced KDR-binding affinity (RIA) (KDR receptor) | binding to KDR-transfected NIH3T3 cells [3] | binding to Flt-1-transfected cells [4] | Molecule | phosphorylation of ERK1 and ERK2 [1] | p38 phosphorylation [2] | PLC-gamma phosphorylation (PLC-gamma in HUVEC cells) | promotion of HUVEC cell migration (HUVEC cells) | induction of corneal angiogenesis (corneal angiogenesis) | affinity for Flt-1 compared to native protein (RIA) (Flt-1 receptor) | stimulation of MMP-9 secretion [5]
1 | – | – | – | LK-VRB-2f: full length 1–165 VEGF variant with D63S/G65M/L66R | triggered phosphorylation of ERK1 and ERK2 | able to stimulate p38 phosphorylation | able to stimulate PLC-gamma phosphorylation to a similar extent | as effective as the native VEGF | as efficient as native VEGF in inducing corneal angiogenesis | – | –
2 | at least 470 fold | no detectable binding | slightly improved binding | Flt-sel: VEGF (1–109) variant with alanine substitutions at Ile 43, Ile 46, Gln 79 and Ile 83; Flt-1 selective (protein) APMAEGGGQNHHEVVKFMDVYQRSYCHPIETLVDIFQEYPDEAEYAFKPSCVPLMRCGGCCNDEGLECVPTEESNITMAIMRAKPHQGQHIGEMSFLQHNKCECRPKKD | – | – | – | – | – | essentially identical to that of the native protein | fully active
